# Experimental data taken from patent US6670448B2, “Peptide antagonists of zonulin and methods for use of the same” (University of Maryland, Baltimore, priority 1998, dated 2003).
# No end group written: not given here.
# System: rabbit ileum
# Assay: Peptide antagonists FZI/0 and FZI/1 on rabbit ileum in Ussing chambers, alone or before ZOT or zonulin
# Assay type: cell-based
# Procedure: Next, Ussing chamber assays were carried out using ileum from 2-3 kg adult male New Zealand white rabbits, which were sacrificed by cervical dislocation. A 20 cm segment of ileum was removed, rinsed free of the intestinal content, opened along the mesenteric border, and stripped of muscular and serosal layers. Eight sheets of mucosa so prepared were then mounted in lucite Ussing chambers (1.12 cm^2 opening), connected to a voltage clamp apparatus (EVC 4000 WPI, Saratosa, Fla.), and bathed with freshly prepared Ringer's solution comprising 53 mM NaCl, 5.0 mM KCl, 30.5 mM mannitol, 1.69 mM Na2HPO4, 0.3 mM NaH2PO4, 1.25 mM CaCl2, 1.1 mM MgCl2, and 25 mM NaHCO3. The bathing solution was maintained at 37° C. with water-jacketed reservoirs connected to a constant-temperature circulating pump and gassed with 95% O2/5% CO2.
# 100 μl of zonulin purified from rabbit intestine was added to the mucosal side. The potential difference (PD) was measured every 10 min, and the short-circuit current (Isc) and tissue resistance (Rt) were calculated as described by Fasano et al, supra. Because of tissue variability, data were calculated as ΔRt (Rt at time x)−(Rt at time 0).
# Next, rabbit ileum mounted in Ussing chambers as described above, were exposed to 100 μg of FZI/0 (SEQ ID NO:15), 100 μg ofFZI/1 (SEQ ID NO:34), 1.0 μg of 6xHis-ZOT (obtained as described in Example 1), 1.0 μg of zonulini (obtained as described in Example 3), or 1.0 μg of zonulinh (obtained as described in Example 3) alone; or pre-exposed for 20 min to 100 μg of FZI/0 or FZI/1, at which time 1.0 μg of 6xHis-ZOT, 1.0 μg of zonulini, or 1.0 μg of zonulinh, was added. ΔRt was then calculated as described above.
Sequence,"change in Rt as compared to the negative control, peptide alone (100 μg peptide alone, not significant, FIG. 8 closed bar)","decrease of the effect of ZOT on Rt (pre-treatment 20 min with 100 μg peptide, then 1.0 μg 6xHis-ZOT, FIG. 8)","decrease of the effect of zonulinh on Rt (pre-treatment 20 min with 100 μg peptide, then 1.0 μg zonulinh, FIG. 8)","decrease of the effect of zonulini on Rt (pre-treatment 20 min with 100 μg peptide, then 1.0 μg zonulini, FIG. 8)","inhibitory effect on the action of ZOT, zonulini and zonulinh on Rt (pre-exposure 20 min to 100 μg peptide, FIG. 8 shaded bar)"
"GGVLVQPG [FZI/0, synthetic octapeptide corresponding to amino acid residues 8-15 of human fetal zonulini]",0.5%,75%,100%,97%,
"VGVLGRPG [FZI/1, second synthetic peptide with positions 8, 12 and 13 changed to the residues of zonulinb (Val, Gly, Arg)]",,,,,completely ablated
